Assay results: article PMC10569638 (PLOS ONE, 2023)
Read-outs that look alike come from different tables or passages of the source.

What was measured:
Assay type in all cases: cell-based
[1] = target: T1, zebrafish αβδ nAChR (δ-type) (Danio rerio, UniProt Q75XT1+Q98880); test: TEVC inhibition of ACh-elicited nAChR current in Xenopus oocytes, δ-type; conditions: for Hill coefficient: inhibition, δ-type
Experimental: (§1) The bath solution was ND96. […] Oocytes were incubated around 30 sec in the bath solution containing inhibitors of identical concentration. Recordings were performed at room temperature. Holding potential was -80 mV. Vecuronium and rocuronium were purchased from Tokyo Chemical Industry. Pancuronium and d-tubocurarine were purchased from Alomone Labs and FUJIFILM Wako Chemicals, respectively.
(§2) Fitting algorism is identical to that of ACh.

[2] = target: T2, zebrafish αβδε nAChR (ε-type) (Danio rerio, UniProt A2BG85+Q75XT1+Q98880); test: TEVC inhibition of ACh-elicited nAChR current in Xenopus oocytes, ε-type; conditions: for Hill coefficient: inhibition, ε-type
Experimental: as §1, §2

[3] = target: zebrafish nAChR containing ε/δ/δ chimeric subunit (Danio rerio, UniProt A2BG85+Q75XT1+Q98880); test: TEVC inhibition of nAChR current, α, β, δ + ε/δ/δ chimera; conditions: mean ± sem
Experimental: as §1, §2

[4] = target: T1, zebrafish αβδ nAChR (δ-type); test: Voltage-dependent block tested by ramp pulses, δ-type; conditions: 20 nM pancuronium
Experimental: (§3) To examine possible pore blocking activity of pancuronium, the voltage-dependent block was tested by ramp pulses in the presence of pancuronium.
(§4) Fig 10 Voltage-dependent change of the conductance in the presence and absence of pancuronium. (A1), (B1), Representative current traces of the ε-type (A1) and the δ-type (B1). The black and gray traces are in the absence and the presence of 20 nM pancuronium, respectively. Pulse protocols are shown at the bottom. (A2), (B2), Representative I-V curves of the ε-type (A2) and the δ-type (B2). (A3), (B3), G-V curves of the ε-type (A3) and the δ-type (B3). Data were normalized by the conductance at -100 mV. Data are shown as mean ± sem. (N = 9 for all data).

[5] = target: T2, zebrafish αβδε nAChR (ε-type); test: Voltage-dependent block tested by ramp pulses, ε-type; conditions: 20 nM pancuronium
Experimental: as §3, §4

[6] = target: zebrafish nAChR containing ε/ε/δ chimeric subunit (Danio rerio, UniProt A2BG85+Q75XT1+Q98880); test: TEVC inhibition of nAChR current, α, β, δ + ε/ε/δ chimera; conditions: 100 μM ACh, mean ± sem
Experimental: as §1, §2

[7] = target: zebrafish nAChR containing δ/ε/ε chimeric subunit (Danio rerio, UniProt A2BG85+Q75XT1+Q98880); test: TEVC inhibition of nAChR current, α, β, δ + δ/ε/ε chimera; conditions: mean ± sem
Experimental: as §1, §2

[8] = target: zebrafish nAChR containing δ/ε/δ chimeric subunit (Danio rerio, UniProt A2BG85+Q75XT1+Q98880); test: TEVC inhibition of nAChR current, α, β, δ + δ/ε/δ chimera; conditions: 100 μM ACh, mean ± sem
Experimental: as §1, §2

[9] = target: zebrafish nAChR containing ε/δ/ε chimeric subunit (Danio rerio, UniProt A2BG85+Q75XT1+Q98880); test: TEVC inhibition of nAChR current, α, β, δ + ε/δ/ε chimera; conditions: 100 μM ACh, mean ± sem
Experimental: as §1, §2

[10] = target: zebrafish nAChR containing δ/δ/ε chimeric subunit (Danio rerio, UniProt A2BG85+Q75XT1+Q98880); test: TEVC inhibition of nAChR current, α, β, δ + δ/δ/ε chimera; conditions: 100 μM ACh, mean ± sem
Experimental: as §1, §2

[11] = IC50, δ-type, current elicited by 100 μM ACh, -80 mV, mean ± sem
[12] = IC50, ε-type, current elicited by 100 μM ACh, -80 mV, mean ± sem

T1 sequence (Q98880 21-456): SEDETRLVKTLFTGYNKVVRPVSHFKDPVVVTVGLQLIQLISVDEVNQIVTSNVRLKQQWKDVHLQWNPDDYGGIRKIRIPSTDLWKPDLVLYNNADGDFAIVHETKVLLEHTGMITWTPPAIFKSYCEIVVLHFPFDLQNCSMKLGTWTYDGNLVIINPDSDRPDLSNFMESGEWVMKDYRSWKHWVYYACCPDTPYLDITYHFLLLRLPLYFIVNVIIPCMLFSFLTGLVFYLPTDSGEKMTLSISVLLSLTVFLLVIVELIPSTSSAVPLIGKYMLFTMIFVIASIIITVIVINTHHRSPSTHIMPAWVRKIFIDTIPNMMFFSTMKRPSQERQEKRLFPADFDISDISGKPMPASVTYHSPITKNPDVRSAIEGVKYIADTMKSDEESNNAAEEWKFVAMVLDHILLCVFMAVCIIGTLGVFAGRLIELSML
T1 sequence (Q75XT1 22-518): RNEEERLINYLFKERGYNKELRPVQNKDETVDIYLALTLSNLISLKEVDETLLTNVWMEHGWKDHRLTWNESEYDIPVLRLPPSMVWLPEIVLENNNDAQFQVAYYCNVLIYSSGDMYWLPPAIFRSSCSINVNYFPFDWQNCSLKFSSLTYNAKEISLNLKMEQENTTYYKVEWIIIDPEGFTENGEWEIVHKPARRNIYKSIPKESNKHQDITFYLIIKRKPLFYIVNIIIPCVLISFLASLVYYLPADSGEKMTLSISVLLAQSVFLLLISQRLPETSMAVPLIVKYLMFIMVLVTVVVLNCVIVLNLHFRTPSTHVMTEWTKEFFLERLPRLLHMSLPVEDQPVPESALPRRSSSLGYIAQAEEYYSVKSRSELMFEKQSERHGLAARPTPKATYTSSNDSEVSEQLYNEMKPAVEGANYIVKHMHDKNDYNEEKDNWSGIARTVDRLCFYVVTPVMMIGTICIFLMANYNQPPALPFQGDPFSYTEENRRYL
T1 sequence (G1FMP8 23-492 partner): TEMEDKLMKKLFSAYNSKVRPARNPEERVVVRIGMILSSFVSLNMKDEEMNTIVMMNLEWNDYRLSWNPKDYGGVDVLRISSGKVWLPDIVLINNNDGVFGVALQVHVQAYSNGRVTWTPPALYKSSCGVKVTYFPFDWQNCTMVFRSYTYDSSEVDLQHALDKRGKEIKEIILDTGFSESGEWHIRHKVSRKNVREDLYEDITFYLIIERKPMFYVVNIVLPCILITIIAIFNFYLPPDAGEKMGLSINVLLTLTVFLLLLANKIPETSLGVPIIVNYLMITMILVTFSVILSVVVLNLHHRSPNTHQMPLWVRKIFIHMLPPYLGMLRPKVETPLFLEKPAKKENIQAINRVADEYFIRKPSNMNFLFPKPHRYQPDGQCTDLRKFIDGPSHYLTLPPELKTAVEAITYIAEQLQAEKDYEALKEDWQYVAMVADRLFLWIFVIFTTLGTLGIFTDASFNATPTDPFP
T2 sequence (Q98880 21-456): as the sequence (Q98880 21-456) above
T2 sequence (Q75XT1 22-518): as the sequence (Q75XT1 22-518) above
T2 sequence (A2BG85 27-517): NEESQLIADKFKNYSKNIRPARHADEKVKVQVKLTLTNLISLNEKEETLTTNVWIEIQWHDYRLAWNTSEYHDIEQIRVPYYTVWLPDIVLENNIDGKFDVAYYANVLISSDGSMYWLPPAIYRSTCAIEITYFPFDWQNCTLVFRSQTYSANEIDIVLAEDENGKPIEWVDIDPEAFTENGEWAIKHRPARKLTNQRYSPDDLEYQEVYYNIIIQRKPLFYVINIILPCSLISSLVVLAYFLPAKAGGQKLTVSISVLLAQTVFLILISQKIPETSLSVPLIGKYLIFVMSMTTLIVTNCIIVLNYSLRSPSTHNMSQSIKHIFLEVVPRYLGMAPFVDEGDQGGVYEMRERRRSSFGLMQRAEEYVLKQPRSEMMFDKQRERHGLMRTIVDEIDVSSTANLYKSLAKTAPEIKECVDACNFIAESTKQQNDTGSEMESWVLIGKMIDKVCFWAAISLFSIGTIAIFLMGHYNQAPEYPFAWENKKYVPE
T2 sequence (G1FMP8 23-492 partner): as the sequence (G1FMP8 23-492 partner) above
Chain of zebrafish nAChR containing ε/δ/δ chimeric subunit (A2BG85 1-234, stated change not applied): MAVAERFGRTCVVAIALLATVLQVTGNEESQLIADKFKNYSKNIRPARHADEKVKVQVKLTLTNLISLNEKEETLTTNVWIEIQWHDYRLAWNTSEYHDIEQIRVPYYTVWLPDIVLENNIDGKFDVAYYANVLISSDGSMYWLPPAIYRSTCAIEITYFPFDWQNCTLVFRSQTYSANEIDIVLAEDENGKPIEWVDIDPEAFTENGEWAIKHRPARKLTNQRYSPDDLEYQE
Chain of zebrafish nAChR containing ε/δ/δ chimeric subunit (Q75XT1 235-518, stated change not applied): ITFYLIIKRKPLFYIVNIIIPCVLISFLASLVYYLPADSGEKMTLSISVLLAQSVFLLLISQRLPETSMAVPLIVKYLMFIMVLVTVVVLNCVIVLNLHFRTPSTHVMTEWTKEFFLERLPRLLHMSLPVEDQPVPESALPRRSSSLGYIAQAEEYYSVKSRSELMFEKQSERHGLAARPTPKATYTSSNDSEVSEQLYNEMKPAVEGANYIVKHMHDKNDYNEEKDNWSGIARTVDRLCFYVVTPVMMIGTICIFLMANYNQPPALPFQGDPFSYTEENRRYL
Chain of zebrafish nAChR containing ε/δ/δ chimeric subunit (Q98880 21-456, stated change not applied): as the sequence (Q98880 21-456) above
Chain of zebrafish nAChR containing ε/δ/δ chimeric subunit (Q75XT1 235-518, stated change not applied): as the sequence (Q75XT1 235-518, stated change not applied) above
Chain of zebrafish nAChR containing ε/δ/δ chimeric subunit (G1FMP8 23-492 partner): as the sequence (G1FMP8 23-492 partner) above
Chain of zebrafish nAChR containing δ/ε/ε chimeric subunit (Q75XT1 1-234, stated change not applied): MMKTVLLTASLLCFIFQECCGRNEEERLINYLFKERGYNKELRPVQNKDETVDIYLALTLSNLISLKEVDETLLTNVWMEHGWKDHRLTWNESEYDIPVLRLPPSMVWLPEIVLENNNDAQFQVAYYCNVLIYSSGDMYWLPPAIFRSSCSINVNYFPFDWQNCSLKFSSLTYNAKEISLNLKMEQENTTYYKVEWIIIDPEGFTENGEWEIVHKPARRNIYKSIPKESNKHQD
Chain of zebrafish nAChR containing δ/ε/ε chimeric subunit (A2BG85 235-517, stated change not applied): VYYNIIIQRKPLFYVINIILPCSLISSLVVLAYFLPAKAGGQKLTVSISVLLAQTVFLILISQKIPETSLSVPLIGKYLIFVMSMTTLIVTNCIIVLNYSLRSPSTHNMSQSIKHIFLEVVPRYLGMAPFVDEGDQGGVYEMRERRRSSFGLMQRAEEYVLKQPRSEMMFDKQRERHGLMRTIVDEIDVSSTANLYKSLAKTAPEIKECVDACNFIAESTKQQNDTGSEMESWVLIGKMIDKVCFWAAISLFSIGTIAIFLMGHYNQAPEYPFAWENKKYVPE
Chain of zebrafish nAChR containing δ/ε/ε chimeric subunit (Q98880 21-456, stated change not applied): as the sequence (Q98880 21-456) above
Chain of zebrafish nAChR containing δ/ε/ε chimeric subunit (Q75XT1 1-234, stated change not applied): as the sequence (Q75XT1 1-234, stated change not applied) above
Chain of zebrafish nAChR containing δ/ε/ε chimeric subunit (G1FMP8 23-492 partner): as the sequence (G1FMP8 23-492 partner) above

Row | Structure (SMILES) | IC50 [1] [nM] | Hill coefficient ([1]; 100 μM ACh, mean ± sem) | IC50 [2] [nM] | Hill coefficient ([2]; 100 μM ACh, mean ± sem) | IC50 ([1]; IC50, δ-type, by 2 μM ACh, mean ± sem) [nM] | IC50 [1, 11] [nM] | Hill coefficient ([1]; by 2 μM ACh, mean ± sem) | Hill coefficient ([3]; 100 μM ACh) | Hill coefficient ([3]; by 2 μM ACh) | IC50 ([2]; IC50, ε-type, by 2 μM ACh, mean ± sem) [nM] | IC50 [2, 12] [nM] | Hill coefficient ([2]; by 2 μM ACh, mean ± sem) | voltage-dependent block [4] | voltage-dependent block [5] | Hill coefficient [6] | Hill coefficient ([7]; 100 μM ACh) | Hill coefficient ([7]; by 2 μM ACh) | Hill coefficient [8] | Hill coefficient [9] | Hill coefficient [10]
1 | COc1cc2c3cc1Oc1cc(ccc1O)C[C@@H]1c4c(cc(OC)c(O)c4Oc4ccc(cc4)C[C@@H]3N(C)CC2)CC[N+]1(C)C [d-tubocurarine] | 123 ± 18.7 | 1.1 ± 0.1 | 112 ± 8.2 | 1.2 ± 0.1 | – | – | – | – | – | – | – | – | – | – | – | – | – | – | – | –
2 | CC(=O)O[C@H]1C[C@@H]2CC[C@@H]3[C@H](CC[C@@]4(C)[C@H]3C[C@H]([N+]3(C)CCCCC3)[C@@H]4OC(C)=O)[C@@]2(C)C[C@@H]1[N+]1(C)CCCCC1 [pancuronium] | – | 1.3 ± 0.4 | – | 1.1 ± 0.1 | 109 ± 30.9 | 116 ± 29.2 | 1.1 ± 0.2 | 1.7 ± 0.5 | 1.4 ± 0.5 | 12.5 ± 1.9 | 15.6 ± 1 | 1.1 ± 0.2 | voltage dependency of block was again not observed | the specific blockage of outward or inward current by pancuronium was not observed | 1.8 ± 0.3 | 1.0 ± 0.0 | 1.8 ± 1.0 | 1.0 ± 0.1 | 0.9 ± 0.1 | 1.0 ± 0.1
3 | C=CC[N+]1([C@H]2C[C@H]3[C@@H]4CC[C@H]5C[C@H](O)[C@@H](N6CCOCC6)C[C@]5(C)[C@H]4CC[C@]3(C)[C@H]2OC(C)=O)CCCC1 [rocuronium] | – | 1.1 ± 0.1 | – | 0.7 ± 0.1 | – | 4.2 ± 0.7 | – | – | – | – | 4.7 ± 0.7 | – | – | – | – | – | – | – | – | –
4 | CC(=O)O[C@H]1C[C@@H]2CC[C@@H]3[C@H](CC[C@@]4(C)[C@H]3C[C@H]([N+]3(C)CCCCC3)[C@@H]4OC(C)=O)[C@@]2(C)C[C@@H]1N1CCCCC1 [vecuronium] | – | 1.0 ± 0.1 | – | 1.3 ± 0.2 | – | 0.7 ± 0.1 | – | – | – | – | 1.1 ± 0.2 | – | – | – | – | – | – | – | – | –
